From patent publication US20230203058A1, “MACROCYCLIC DIAMINE DERIVATIVES AS ENT INHIBITORS FOR THE TREATMENT OF CANCERS, AND COMBINATION THEREOF WITH ADENOSINE RECEPTOR ANTAGONISTS” (ITEOS BELGIUM SA, priority 2020, published 2023)

Columns and labels:
[1] = system: CMV peptide-specific CD8+ T cells; experiment: CMV antigen recall assay (FIG. 3); format: cell-based, human; details: ATP 300 µM, 7 days, with IL-2, IL-7, nivolumab
Procedure: FIG. 3 depicts a bar graph of percent tetramer. PBMCs from a healthy volunteer donor with previous history of CMV infection and known HLA-A*02 subtype were cultured for 7 days with a peptide ([…]) derived from the immunodominant CMV antigen pp65 alongside IL-2, IL-7 and the anti-PD1 antibody nivolumab. ATP was added to the cultures as a source of adenosine, alongside the ENT1 inhibitor molecules as indicated. Expansion of the peptide-specific CD8^+ T cell population was monitored via flow cytometry using […]-MHC-I tetramers linked with BV421. ** = p < 0.01; * = p < 0.05; derived from one-way ANOVA with Tukey’s multiple comparisons test from technical replicates in a single experiment.
Frozen vials of PBMCs from a healthy volunteer donor with history of CMV infection and known HLA-A*02 subtype were purchased from ImmuneXperts. Cells were thawed and washed into X-VIVO15 medium containing 5% human serum and 1 mM sodium pyruvate and plated in 96 U bottom plates (1 × 10^6 cells per well). […] On day 7 of culture the cells were harvested and the frequency of CMV-peptide specific CD8^+ T cells was assessed via flow cytometry using […]-MHC-I tetramers (Tetramer Shop) by quantifying the frequency of tetramer^+ cells within the viable CD8^+ T cell gate.

human ENT1 = target: T1, human ENT1 (Homo sapiens, UniProt Q99808); experiment: ENT1 binding assay (competition with Sahenta-DY647 on JAR cells); design: JAR cells expressing ENT1 were bought from ATCC® (HTB-144TM); host or cells: JAR cells (human choriocarcinoma line; whole cells); details: competition with Sahenta-DY647 100 nM, 4° C.
T1 sequence (Q99808 1-456): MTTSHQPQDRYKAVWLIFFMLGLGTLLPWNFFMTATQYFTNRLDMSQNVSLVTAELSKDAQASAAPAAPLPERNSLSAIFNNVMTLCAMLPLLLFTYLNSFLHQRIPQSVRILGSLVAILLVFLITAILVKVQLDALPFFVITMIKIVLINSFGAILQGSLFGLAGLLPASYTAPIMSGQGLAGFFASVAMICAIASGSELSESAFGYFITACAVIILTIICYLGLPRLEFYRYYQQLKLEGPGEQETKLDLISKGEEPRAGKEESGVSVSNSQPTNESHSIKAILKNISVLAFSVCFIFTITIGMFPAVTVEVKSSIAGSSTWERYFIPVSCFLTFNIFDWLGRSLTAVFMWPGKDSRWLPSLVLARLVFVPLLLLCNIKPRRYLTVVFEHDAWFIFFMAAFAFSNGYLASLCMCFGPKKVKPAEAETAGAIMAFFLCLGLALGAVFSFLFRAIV
Outline: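 Competition binding on intact JAR cells (50000 per well) in HBSS with 10 mM Hepes and 0.1% BSA. Cells pre-incubated with compound 30 min at 4 °C, then Sahenta-DY647 added at its IC90 (100 nM) for another 30 min at 4 °C; after washing, fluorescence read at Ex 630/Em 670 nm.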

Structure (SMILES) | Rescue of proliferation of CMV peptide-specific CD8+ T cells [1] | IC50 (human ENT1)
COc1cc(C(=O)O[C@H]2CCCOc3cc(cc(OC)c3OC)C(=O)OCCCN3CCCN(CC2)CC3)cc(OC)c1OC [Compound 2, (12S)-74,75-dimethoxy-6-oxo-5,8-dioxa-1(1,4)-diazepana-7(1,3)-benzenacyclotetradecaphane-12-yl 3,4,5-trimethoxybenzoate] | significant rescue of proliferation | 1 to 20 nM
COc1cc(C(=O)OC2CCCOc3cc(cc(OC)c3OC)C(=O)N(C)CCCN3CCCN(CC2)CC3)cc(OC)c1OC (stereo not shown) [Compound 11, 74,75-dimethoxy-5-methyl-6-oxo-8-oxa-5-aza-1(1,4)-diazepana-7(1,3)-benzenacyclotetradecaphane-12-yl 3,4,5-trimethoxybenzoate] | significant rescue of proliferation | 1 to 20 nM
